From ChEMBL document CHEMBL1201862, “PubChem BioAssay data set” (2004)
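Step 1: Grow cells in 96-well plates. Step 2: Expose to compound for 48 hours at 5 concentrations. Step 3: Interpolate endpoints linearly; if unreached, use highest concentration. GI50 is the concentration that inhibits growth by half.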 The source made the active and inactive calls. No stated cut-off is given here; in the data, active = GI50 up to about 1.1 µM and inactive = higher.

Assays:
Assay in all cases: NCI anticancer screen, dose series, 48 h
MDA-MB-435 = test system: MDA-MB-435
HT-29 = test system: HT-29
EKVX = test system: EKVX
MDA-N = test system: MDA-N
SN12C = test system: SN12C
HOP-92 = test system: HOP-92
UACC-257 = test system: UACC-257
SK-MEL-5 = test system: SK-MEL-5
Hs-578T = test system: Hs-578T
SNB-19 = test system: SNB-19
A549 = test system: A549
HL-60 = test system: HL-60
UO-31 = test system: UO-31
SNB-75 = test system: SNB-75
SK-MEL-28 = test system: SK-MEL-28
NCI-H23 = test system: NCI-H23
IGROV-1 = test system: IGROV-1
COLO 205 = test system: COLO 205
Malme-3M = test system: Malme-3M
SF-539 = test system: SF-539

`O=[N+]([O-])c1ccc2c(c1)=[N+]([O-])C1(CCCCC1)[N+]=2[O-]` was tested, and the GI50 (MDA-MB-435) was 13.7 µM (inactive), the GI50 (HT-29) was 19.5 µM (inactive) and the GI50 (EKVX) was 15.5 µM (inactive). The GI50 (MDA-N) was 18 µM (inactive), the GI50 (SN12C) was 17.5 µM (inactive) and the GI50 (HOP-92) was 15.3 µM (inactive). The GI50 (UACC-257) was 15.1 µM (inactive), the GI50 (SK-MEL-5) was 15 µM (inactive) and the GI50 (Hs-578T) was 21.5 µM (inactive). For the same compound, the GI50 (SNB-19) was 36.4 µM (inactive), the GI50 (A549) was 19.7 µM (inactive) and the GI50 (HL-60) was 3.27 µM (inactive). The GI50 (UO-31) was 19.6 µM (inactive), the GI50 (SNB-75) was 17.3 µM (inactive) and the GI50 (SK-MEL-28) was 19.3 µM (inactive). The GI50 (NCI-H23) was 22.9 µM (inactive), the GI50 (IGROV-1) was 20.4 µM (inactive) and the GI50 (COLO 205) was 12.1 µM (inactive). The GI50 (Malme-3M) was 15.2 µM (inactive) and the GI50 (SF-539) was 18.5 µM (inactive).

In the case of `CCOc1cc2c(c(OCC)c1O)CC[C@@H]1[C@@H]2CC[C@]2(C)[C@@H](O)CC[C@@H]12`, the GI50 (MDA-MB-435) is reported as 0.203 µM (active), the GI50 (HT-29) is reported as 8.38 µM (inactive) and the GI50 (EKVX) is reported as 6.1 µM (inactive). For the same compound, the GI50 (MDA-N) was 0.234 µM (active), the GI50 (HOP-92) was 18.7 µM (inactive) and the GI50 (SK-MEL-5) was 1.21 µM (inactive). The GI50 (Hs-578T) was 4.68 µM (inactive), the GI50 (SNB-19) was 1.25 µM (inactive) and the GI50 (A549) was 7.11 µM (inactive). For the same compound, the GI50 (HL-60) was 0.297 µM (active), the GI50 (UO-31) was 9.27 µM (inactive) and the GI50 (SNB-75) was 0.587 µM (active). For the same compound, the GI50 (NCI-H23) was 4.2 µM (inactive), the GI50 (IGROV-1) was 6.76 µM (inactive) and the GI50 (COLO 205) was 20.5 µM (inactive). The GI50 (Malme-3M) was 2.29 µM (inactive) and the GI50 (SF-539) was 1.48 µM (inactive).

With `C/C(=N\Nc1ccc2ccccc2n1)c1ccccc1O` the GI50 (MDA-MB-435) was > 100 µM (inactive), the GI50 (HT-29) was 8.15 µM (inactive) and the GI50 (EKVX) was 19.6 µM (inactive). For the same compound, the GI50 (MDA-N) was > 100 µM (inactive), the GI50 (SN12C) was > 100 µM (inactive) and the GI50 (HOP-92) was > 100 µM (inactive). The GI50 (UACC-257) was > 100 µM (inactive), the GI50 (SK-MEL-5) was > 100 µM (inactive) and the GI50 (Hs-578T) was > 83.2 µM (inactive). The GI50 (SNB-19) was > 63.8 µM (inactive), the GI50 (A549) was > 100 µM (inactive) and the GI50 (HL-60) was > 100 µM (inactive). For the same compound, the GI50 (UO-31) was 70.8 µM (inactive), the GI50 (SNB-75) was < 0.01 µM (active) and the GI50 (SK-MEL-28) was > 100 µM (inactive). The GI50 (NCI-H23) was > 100 µM (inactive), the GI50 (IGROV-1) was > 100 µM (inactive) and the GI50 (COLO 205) was > 100 µM (inactive). For the same compound, the GI50 (Malme-3M) was > 100 µM (inactive) and the GI50 (SF-539) was > 68.9 µM (inactive).

In the case of `Cc1cc(O)c2c(c1)C(=O)C=C(Br)C2=O`, the GI50 (MDA-MB-435) is reported as 14.5 µM (inactive), the GI50 (HT-29) is reported as 21.1 µM (inactive) and the GI50 (EKVX) is reported as 24.8 µM (inactive). The GI50 (MDA-N) was 15.3 µM (inactive), the GI50 (SN12C) was 16.4 µM (inactive) and the GI50 (HOP-92) was 13.8 µM (inactive). The GI50 (UACC-257) was 13.1 µM (inactive), the GI50 (SK-MEL-5) was 14.4 µM (inactive) and the GI50 (Hs-578T) was 13 µM (inactive). The GI50 (SNB-19) was > 65.8 µM (inactive), the GI50 (A549) was 30.3 µM (inactive) and the GI50 (HL-60) was 0.724 µM (active). For the same compound, the GI50 (UO-31) was 15.5 µM (inactive), the GI50 (SNB-75) was 16.8 µM (inactive) and the GI50 (SK-MEL-28) was 15.4 µM (inactive). For the same compound, the GI50 (NCI-H23) was 17.1 µM (inactive), the GI50 (IGROV-1) was > 43.7 µM (inactive) and the GI50 (COLO 205) was 6.32 µM (inactive). The GI50 (Malme-3M) was 7.69 µM (inactive) and the GI50 (SF-539) was 16 µM (inactive).

`Oc1ccc(Cl)cc1-c1nc(S)nc(-c2ccccc2)c1Cl` was tested, and the GI50 (MDA-MB-435) was > 100 µM (inactive), the GI50 (HT-29) was > 31.6 µM (inactive) and the GI50 (MDA-N) was > 100 µM (inactive). For the same compound, the GI50 (SN12C) was > 100 µM (inactive), the GI50 (HOP-92) was 69.8 µM (inactive) and the GI50 (UACC-257) was > 100 µM (inactive). For the same compound, the GI50 (SK-MEL-5) was > 61.7 µM (inactive), the GI50 (Hs-578T) was 22.9 µM (inactive) and the GI50 (SNB-19) was 69.2 µM (inactive). The GI50 (A549) was > 100 µM (inactive), the GI50 (HL-60) was > 100 µM (inactive) and the GI50 (UO-31) was > 88.5 µM (inactive). For the same compound, the GI50 (SNB-75) was 18.9 µM (inactive), the GI50 (SK-MEL-28) was > 100 µM (inactive) and the GI50 (NCI-H23) was > 100 µM (inactive). For the same compound, the GI50 (IGROV-1) was 72.4 µM (inactive), the GI50 (COLO 205) was > 100 µM (inactive) and the GI50 (Malme-3M) was > 100 µM (inactive). The GI50 (SF-539) was > 10 µM (inactive).

For `O=c1/c(=C/c2ccc(-c3ccc(Cl)cc3Cl)o2)sc2n1[C@@H](c1ccc3c(c1)OCO3)C=C(c1cc(F)c(Cl)cc1Cl)N=2`, the GI50 (MDA-MB-435) was 33.2 µM (inactive), the GI50 (HT-29) was 25.6 µM (inactive) and the GI50 (MDA-N) was 37.8 µM (inactive). For the same compound, the GI50 (SN12C) was 57.3 µM (inactive), the GI50 (HOP-92) was 31.1 µM (inactive) and the GI50 (UACC-257) was 22.6 µM (inactive). For the same compound, the GI50 (SK-MEL-5) was 28.5 µM (inactive), the GI50 (Hs-578T) was 14 µM (inactive) and the GI50 (SNB-19) was 28.8 µM (inactive). For the same compound, the GI50 (A549) was 46.1 µM (inactive), the GI50 (HL-60) was 27.2 µM (inactive) and the GI50 (UO-31) was 31.7 µM (inactive). The GI50 (SNB-75) was > 100 µM (inactive), the GI50 (SK-MEL-28) was 91.8 µM (inactive) and the GI50 (NCI-H23) was 38.5 µM (inactive). For the same compound, the GI50 (IGROV-1) was 34.3 µM (inactive), the GI50 (COLO 205) was 38.7 µM (inactive) and the GI50 (Malme-3M) was > 100 µM (inactive). For the same compound, the GI50 (SF-539) was 35.3 µM (inactive).

With `CCOC1c2cc(OC)c(OC)cc2-c2ccc3ccccc3c2N1C` (stereo not given) the GI50 (MDA-MB-435) was 13.8 µM (inactive), the GI50 (HT-29) was 10.9 µM (inactive) and the GI50 (EKVX) was 6.27 µM (inactive). For the same compound, the GI50 (MDA-N) was 10.6 µM (inactive), the GI50 (SN12C) was 7.76 µM (inactive) and the GI50 (HOP-92) was 21.9 µM (inactive). For the same compound, the GI50 (UACC-257) was 16.6 µM (inactive), the GI50 (SK-MEL-5) was 16.4 µM (inactive) and the GI50 (Hs-578T) was 6.4 µM (inactive). The GI50 (SNB-19) was 9.86 µM (inactive), the GI50 (A549) was 5.62 µM (inactive) and the GI50 (HL-60) was 44.1 µM (inactive). The GI50 (UO-31) was 44.6 µM (inactive), the GI50 (SNB-75) was 11.8 µM (inactive) and the GI50 (SK-MEL-28) was 13.4 µM (inactive). For the same compound, the GI50 (NCI-H23) was 8 µM (inactive), the GI50 (IGROV-1) was 19.2 µM (inactive) and the GI50 (COLO 205) was 6.05 µM (inactive). For the same compound, the GI50 (Malme-3M) was 9.16 µM (inactive) and the GI50 (SF-539) was 18.2 µM (inactive).
